Bridge positions count the residues as written; N and C are the ends. Ends that are not written are not given here.
System: patients with chronic idiopathic constipation (CIC)
Assay: Second phase 3 CIC trial: change from baseline in CSBMs/week
Format: in vivo, human
Details: All Randomized (includes Duplicate Patients)
[1] = 3 mg, overall average estimate across the 12-week treatment period

Asn^1-Asp^2-Glu^3-Cys^4-Glu^5-Leu^6-Cys^7-Val^8-Asn^9-Val^10-Ala^11-Cys^12-Thr^13-Gly^14-Cys^15-Leu^16 (NDECELCVNVACTGCL; disulfide 4-12, 7-15) [Plecanatide, uroguanylin analogue, guanylate cyclase-C agonist; (C4:C12, C7:C15) bicycle peptide]
Change from Baseline in CSBMs, Difference from Placebo (3 mg, Post-Treatment Week 13): 0.43 CSBMs/week
Change from Baseline in CSBMs, LS Mean (SE) (3 mg, Post-Treatment Week 13): 1.91 (0.131) CSBMs/week
Change from Baseline in CSBMs, Mean (SD) (3 mg, Post-Treatment Week 13): 1.87 (2.717) CSBMs/week
Change from Baseline in CSBMs, Difference from Placebo (3 mg, Post-Treatment Week 14): 0.40 CSBMs/week
Change from Baseline in CSBMs, LS Mean (SE) (3 mg, Post-Treatment Week 14): 1.78 (0.133) CSBMs/week
Change from Baseline in CSBMs, Mean (SD) (3 mg, Post-Treatment Week 14): 1.75 (2.596) CSBMs/week
Change from Baseline in CSBMs, Difference from Placebo (3 mg, Week 1): 0.90 CSBMs/week
Change from Baseline in CSBMs, LS Mean (SE) (3 mg, Week 1): 1.72 (0.147) CSBMs/week
Change from Baseline in CSBMs, Mean (SD) (3 mg, Week 1): 1.75 (2.737) CSBMs/week
Change from Baseline in CSBMs, Difference from Placebo (3 mg, Week 2): 0.87 CSBMs/week
Change from Baseline in CSBMs, LS Mean (SE) (3 mg, Week 2): 1.83 (0.147) CSBMs/week
Change from Baseline in CSBMs, Mean (SD) (3 mg, Week 2): 1.82 (2.956) CSBMs/week
Change from Baseline in CSBMs, Difference from Placebo (3 mg, Week 3): 0.77 CSBMs/week
Change from Baseline in CSBMs, LS Mean (SE) (3 mg, Week 3): 1.94 (0.147) CSBMs/week
Change from Baseline in CSBMs, Mean (SD) (3 mg, Week 3): 1.94 (3.084) CSBMs/week
Change from Baseline in CSBMs, Difference from Placebo (3 mg, Week 4): 0.95 CSBMs/week
Change from Baseline in CSBMs, LS Mean (SE) (3 mg, Week 4): 2.17 (0.148) CSBMs/week
Change from Baseline in CSBMs, Mean (SD) (3 mg, Week 4): 2.20 (3.352) CSBMs/week
Change from Baseline in CSBMs, Difference from Placebo (3 mg, Week 5): 0.87 CSBMs/week
Change from Baseline in CSBMs, LS Mean (SE) (3 mg, Week 5): 2.30 (0.149) CSBMs/week
Change from Baseline in CSBMs, Difference from Placebo (3 mg, Week 6): 1.00 CSBMs/week
Change from Baseline in CSBMs, LS Mean (SE) (3 mg, Week 6): 2.30 (0.149) CSBMs/week
Change from Baseline in CSBMs, Difference from Placebo (3 mg, Week 7): 0.82 CSBMs/week
Change from Baseline in CSBMs, LS Mean (SE) (3 mg, Week 7): 2.28 (0.150) CSBMs/week
Change from Baseline in CSBMs, Difference from Placebo (3 mg, Week 8): 1.01 CSBMs/week
Change from Baseline in CSBMs, LS Mean (SE) (3 mg, Week 8): 2.49 (0.150) CSBMs/week
Change from Baseline in CSBMs, Difference from Placebo (3 mg, Week 9): 0.93 CSBMs/week
Change from Baseline in CSBMs, LS Mean (SE) (3 mg, Week 9): 2.46 (0.150) CSBMs/week
Change from Baseline in CSBMs, Difference from Placebo (3 mg, Week 10): 0.84 CSBMs/week
Change from Baseline in CSBMs, LS Mean (SE) (3 mg, Week 10): 2.46 (0.150) CSBMs/week
Change from Baseline in CSBMs, Difference from Placebo (3 mg, Week 11): 0.96 CSBMs/week
Change from Baseline in CSBMs, LS Mean (SE) (3 mg, Week 11): 2.53 (0.151) CSBMs/week
Change from Baseline in CSBMs, Difference from Placebo (3 mg, Week 12): 0.95 CSBMs/week
Change from Baseline in CSBMs, LS Mean (SE) (3 mg, Week 12): 2.58 (0.151) CSBMs/week
Change from Baseline in CSBMs, Difference from Placebo [1]: 0.91 CSBMs/week
Change from Baseline in CSBMs, LS Mean (SE) [1]: 2.25 (0.129) CSBMs/week
Change from Baseline in CSBMs, Difference from Placebo (6 mg, Post-Treatment Week 13): 0.16 CSBMs/week
Change from Baseline in CSBMs, LS Mean (SE) (6 mg, Post-Treatment Week 13): 1.64 (0.130) CSBMs/week
Change from Baseline in CSBMs, Mean (SD) (6 mg, Post-Treatment Week 13): 1.59 (2.376) CSBMs/week
Change from Baseline in CSBMs, Difference from Placebo (6 mg, Post-Treatment Week 14): 0.30 CSBMs/week
Change from Baseline in CSBMs, LS Mean (SE) (6 mg, Post-Treatment Week 14): 1.67 (0.133) CSBMs/week
Change from Baseline in CSBMs, Mean (SD) (6 mg, Post-Treatment Week 14): 1.62 (2.588) CSBMs/week
Change from Baseline in CSBMs, Difference from Placebo (6 mg, Week 1): 0.88 CSBMs/week
Change from Baseline in CSBMs, LS Mean (SE) (6 mg, Week 1): 1.70 (0.146) CSBMs/week
Change from Baseline in CSBMs, Mean (SD) (6 mg, Week 1): 1.71 (2.870) CSBMs/week
Change from Baseline in CSBMs, Difference from Placebo (6 mg, Week 2): 0.85 CSBMs/week
Change from Baseline in CSBMs, LS Mean (SE) (6 mg, Week 2): 1.81 (0.146) CSBMs/week
Change from Baseline in CSBMs, Mean (SD) (6 mg, Week 2): 1.83 (3.118) CSBMs/week
Change from Baseline in CSBMs, Difference from Placebo (6 mg, Week 3): 0.65 CSBMs/week
Change from Baseline in CSBMs, LS Mean (SE) (6 mg, Week 3): 1.81 (0.147) CSBMs/week
Change from Baseline in CSBMs, Mean (SD) (6 mg, Week 3): 1.83 (2.927) CSBMs/week
Change from Baseline in CSBMs, Difference from Placebo (6 mg, Week 4): 0.80 CSBMs/week
Change from Baseline in CSBMs, LS Mean (SE) (6 mg, Week 4): 2.02 (0.147) CSBMs/week
Change from Baseline in CSBMs, Difference from Placebo (6 mg, Week 5): 0.50 CSBMs/week
Change from Baseline in CSBMs, LS Mean (SE) (6 mg, Week 5): 1.93 (0.147) CSBMs/week
Change from Baseline in CSBMs, Difference from Placebo (6 mg, Week 6): 0.91 CSBMs/week
Change from Baseline in CSBMs, LS Mean (SE) (6 mg, Week 6): 2.21 (0.148) CSBMs/week
Change from Baseline in CSBMs, Difference from Placebo (6 mg, Week 7): 0.81 CSBMs/week
Change from Baseline in CSBMs, LS Mean (SE) (6 mg, Week 7): 2.27 (0.148) CSBMs/week
Change from Baseline in CSBMs, Difference from Placebo (6 mg, Week 8): 0.81 CSBMs/week
Change from Baseline in CSBMs, LS Mean (SE) (6 mg, Week 8): 2.29 (0.148) CSBMs/week
Change from Baseline in CSBMs, Difference from Placebo (6 mg, Week 9): 0.81 CSBMs/week
Change from Baseline in CSBMs, LS Mean (SE) (6 mg, Week 9): 2.34 (0.149) CSBMs/week
Change from Baseline in CSBMs, Difference from Placebo (6 mg, Week 10): 0.85 CSBMs/week
Change from Baseline in CSBMs, LS Mean (SE) (6 mg, Week 10): 2.47 (0.149) CSBMs/week
Change from Baseline in CSBMs, Difference from Placebo (6 mg, Week 11): 0.83 CSBMs/week
Change from Baseline in CSBMs, LS Mean (SE) (6 mg, Week 11): 2.40 (0.149) CSBMs/week
Change from Baseline in CSBMs, Difference from Placebo (6 mg, Week 12): 0.86 CSBMs/week
Change from Baseline in CSBMs, LS Mean (SE) (6 mg, Week 12): 2.49 (0.150) CSBMs/week
Change from Baseline in CSBMs, Difference from Placebo (6 mg, overall average estimate across the 12-week treatment period): 0.80 CSBMs/week
